# In patent publication US20240301408A1, “MICRORNA 195 COMPOSITIONS AND METHODS FOR TREATING COGNITIVE IMPAIRMENT” (UNITED STATES GOVERNMENT AS REPRESENTED BY THE DEPARTMENT …, priority 2021, published 2024):
# How the values were obtained:
# pTau = pTau levels in iPSC-derived brain cell culture (AT8 staining, ELISA); assay type: cell-based, human; settings: iPSC-derived neuron and astrocyte co-culture
# Method: Mouse Neuronal and human iPSC culture. Primary cortical neurons were cultured (Zhu L et al., Proc Natl Acad Sci USA 2015, and Zhu L et al., J Biol Chem 2013) before being fixed and stained for confocal microscopy analysis (Zeiss LSM) (Berg I et al., Nat Protoc 2010). In some conditions, bovine serum albumin (BSA) or receptor-associated protein (RAP) was included in the cultured media (N=3/group). Alternatively, cultured neurons were transfected with adeno-associated virus 2 (AAV2)-containing miR-195-5p or miR-374 or scramble controls for 5 days before subjected to analysis. The ApoE4^+/+ and ApoE3^+/+ iPSCs were differentiated into neural progenitor cells (NPCs) by dual SMAD inhibition followed by neural rosette selection and forebrain-specific patterning by 20 ng/ml FGF2 exposure (Bowles K R et al., PloS one 2019, and Tcw J et al., Stem cell reports 2017). […]
# Brain and neuronal sample preparation and biochemical analysis. […] Levels of Aβ42, Aβ40, pTau, Tau and ApoE were determined using high-sensitive ELISA kits. […]
# ApoE4+/+ FAD mice = assay: novel object recognition (NOR) after hippocampal AAV2 injection, ApoE KI mice with 5xFAD background (EFAD); assay type: in vivo, mouse; settings: male ApoE4+/+ FAD mice
# Source text: Animal models. Human ApoE4^+/+ or ApoE3^+/+ knock-in (KI) mouse models without (Grootendorst J et al., Behavioural brain research 2005, Rodriguez G A et al., Learn Mem 2013, and Wang C et al., Neurobiology of disease 2005) or with 5×FAD background (Balu D et al., Neurosci Lett 2019, and Tai L M et al., J Lipid Res 2017) were genotyped (Zhong L et al., Mol Neurodegener 2016). Sex as a biological variable was taken into considerations with inclusion of both male and female mice in the experiments.
# Stereotaxic injection and behavior studies. Eight to nine weeks old male and female ApoE3^+/+ and ApoE4^+/+ KI mice without 5×FAD background (N=19-23/group), or with 5×FAD background (N=15-17/group) were placed in the stereotaxic apparatus with AAV2 or scramble virus administered into the dorsal CA1 regions of bilateral hippocampal brain regions using pressure injection (Labonte B et al., Nat Med 2017, and Passini M A et al., The Journal of neuroscience 2006). Injection volumes (0.5-2.0 μl) were delivered over 10 min to avoid tissue damage. Six to nine months after viral delivery, mice were tested with the NOR task (Zhu L et al., Proc Natl Acad Sci USA 2015, Elder G A et al., J Neurotrauma 2012, and Howlett D R et al., Brain Res 2004). Mice were randomized for genotype and sex, and blinded throughout the behavior data collection and analysis, surgical manipulations, and sample collection.
# [1] = tested on: lysosomes of ApoE4+/+ / ApoE3+/+ neurons; assay: lysosome size and number (Lysotracker, confocal) in neurons of iPSC-derived neuron and astrocyte co-culture; assay type: cell-based, human
# Method: Mouse Neuronal and human iPSC culture. Primary cortical neurons were cultured (Zhu L et al., Proc Natl Acad Sci USA 2015, and Zhu L et al., J Biol Chem 2013) before being fixed and stained for confocal microscopy analysis (Zeiss LSM) (Berg I et al., Nat Protoc 2010). In some conditions, bovine serum albumin (BSA) or receptor-associated protein (RAP) was included in the cultured media (N=3/group). Alternatively, cultured neurons were transfected with adeno-associated virus 2 (AAV2)-containing miR-195-5p or miR-374 or scramble controls for 5 days before subjected to analysis. The ApoE4^+/+ and ApoE3^+/+ iPSCs were differentiated into neural progenitor cells (NPCs) by dual SMAD inhibition followed by neural rosette selection and forebrain-specific patterning by 20 ng/ml FGF2 exposure (Bowles K R et al., PloS one 2019, and Tcw J et al., Stem cell reports 2017). These NPCs were purified by MACS for CD271^−/CD133^+ (Bowles K R et al., PloS one 2019) and differentiated to cortical neurons (Bardy C et al., Proc Natl Acad Sci USA 2015, and Paquet D et al., Nature 2016) and a homogeneous population of astrocytes (Tcw J et al., Stem cell reports 2017, and Shaltouki A et al., Stem Cells 2013) before subjected to viral transfection and confocal microscopy analysis. Alternatively, mouse cortical neurons derived from ApoE4^+/+ and ApoE3^+/+ KI mice with synj1^+/+ or synj1^−/− genotypes were co-cultured with ApoE4^+/+ and ApoE3^+/+ iPSC-derived pure astrocytes. In some experiments, cultured neurons were transfected with AAV2-containing miR-195-5p, scramble controls or miR195 inhibitors that specifically prevent miR-195-5p binding to its target mRNA before co-culturing with iPSC-derived astrocytes. Cultured iPSC-derived neurons and astrocytes were then incubated with lysotracker red for various time periods before fixation and double-stained for pTau and a nuclear marker DAPI (blue) for confocal microscopy analysis (Zeiss). N=4-5/condition.
# BV2 cells = assay: LPS-induced pro-inflammatory cytokine release (IL-6, TNFα) in BV2 microglia with miR-195-5p over-expression; assay type: cell-based
# Method: For example, LPS (at 0.2 μg/ml) treatment for overnight in BV2 cells leads to increased expression of pdcd4 and smad7 (FIG. 13A) and reduced expression of il10ra (FIG. 13C). […] Over-expression of miR-195-5p also attenuates LPS-induced pro-inflammatory cytokine release (IL-6 and TNFα; FIG. 13B). […] For these experiments, purified exosomes were derived from human APOE3/3 and 4/4 iPSC-derived astrocytes w/wo miR-195 over-expression detected by an exosome marker, ALIX. Fluorescence labeled exosomes were taken up by IBA1+ microglia cells.
# Over-expression of miR-195-5p in microglia inhibits LPS-induced proinflammatory responses and augments anti-inflammatory responses. […] However, over-expression of miR-195-5p reduces expression levels of pdcd4 and smad7 and increases il10a expression in the presence of LPS. Over-expression of miR-195-5p also attenuates LPS-induced pro-inflammatory cytokine release (IL-6 and TNFα; FIG. 17B).
sequence,measurement,setting,value
"UAGCAGCACAGAAAUAUUGGC (chemistry not given here) [miR-195-5p, over-expressed via AAV2-containing miR-195-5p from ABM Inc]",pTau levels (fluorescent staining and ELISA),pTau,reduced
same,NOR preference index,ApoE4+/+ FAD mice; scramble controls 37.8%,63.1%
same,NOR discrimination index,ApoE4+/+ FAD mice; scramble controls -0.245,0.262
same,lysosomal phenotypes compared to baseline,[1]; ApoE3+/+ neurons,No significant differences
same,neurons with lysosome diameter between 0 to 10 μm,[1]; ApoE4+/+ neurons,53.3%
same,neurons with >10 lysosomes/cell,"[1]; ApoE4+/+ neurons, baseline 18.4%",1.7%
same,LPS-induced pro-inflammatory cytokine release (IL-6 and TNFα),BV2 cells,attenuates
